Values quoted from earlier work as cited in patent US9446009B2, “Methods for treating conditions of the nail unit” (Hallux, Inc., priority 2004, dated 2016).
Values after ≈ are worked out from the molar mass of the structure shown.

Columns and labels:
Details in all cases: in vitro
Trichophyton tonsurans = tested on: Trichophyton tonsurans
Trichophyton rubrum = tested on: Trichophyton rubrum
Trichophyton verrucosum = tested on: Trichophyton verrucosum
[1] = tested on: Trichophyton mentagrophytes

SMILES	MIC Ranges (Trichophyton tonsurans)	MIC Ranges (Trichophyton rubrum)	MIC Ranges (Trichophyton verrucosum) [µg/mL]	MIC Ranges [1]
Cc1cc(C2CCCCC2)n(O)c(=O)c1 [Ciclopiroxolamine]	0.125 to 1 µg/mL	<0.03 to 8 µg/mL	4 (≈ 19.3 µM)	0.5 to 1 µg/mL
OC(Cn1cncn1)(Cn1cncn1)c1ccc(F)cc1F [Fluconazole]	0.25 to 8 µg/mL		16 (≈ 52.2 µM)	16 to 32 µg/mL
Clc1ccc(COC(Cn2ccnc2)c2ccc(Cl)cc2Cl)c(Cl)c1 (centres unmarked) [Miconazole]	0.016 to 0.25 µg/mL	0.008 to 4 µg/mL	4 (≈ 9.61 µM)	1 µg/mL (≈ 2.4 µM)
CN(C/C=C/C#CC(C)(C)C)Cc1cccc2ccccc12 [Terbinafine]	≦0.001-0.008 mcg/ml	≦0.0001-1 ^ mcg/ml	1 (≈ 3.43 µM)	≦S0.001 mcg/ml
CC(=O)N1CCN(c2ccc(OCC3COC(Cn4ccnc4)(c4ccc(Cl)cc4Cl)O3)cc2)CC1 (centres unmarked) [Ketoconazole]	0.016 to 0.125 µg/mL		4 (≈ 7.53 µM)	0.008 to 4 µg/mL
c1ccc(-c2ccc(C(c3ccccc3)n3ccnc3)cc2)cc1 (centres unmarked) [Bifonazole]	≦0.016-0.5 mcg/ml	<0.016 to 1 µg/mL	8 (≈ 25.8 µM)	0.125 to 0.25 µg/mL
COC1=CC(=O)C[C@@H](C)[C@]12Oc1c(Cl)c(OC)cc(OC)c1C2=O [Griseofulvin]	0.5 to 1 µg/mL	0.016 to 8 µg/mL	1 (≈ 2.83 µM)	0.016 to 0.125 µg/mL
